Common to all, as to format: nucleic-acid assay
Assay [1] concerns Nucleic Acid. The assay can be described thus: Binding affinity to duplex DNA dA22.dT22 assessed as change in melting temperature at 3 uM by UV analysis at 260 nm.
Assay [2] relates to Nucleic Acid. The assay can be described thus: Binding affinity to duplex DNA polydA:polydT assessed as decrease in viscosity at 200 uM.
Assay [3] concerns Nucleic Acid. As to the kind of experiment: Binding affinity to duplex DNA polydA:polydT assessed as increase of CD signal at 360nm and at 200 uM compound concentration.

Activity calls are given as the source filed them. The rule behind the calls is not given here.

Turning to `Nc1ccc2ccc3cccc4ccc1c2c34`, in the assay on Nucleic Acid [1], the ΔTm was found to be 2 °C. Same read-out and setting: to `NC[C@@H]1O[C@H](O[C@H]2[C@@H](O)[C@H](O[C@@H]3[C@@H](O)[C@H](N)C[C@H](N)[C@H]3O[C@H]3O[C@H](CN)[C@@H](O)[C@H](O)[C@H]3N)O[C@@H]2CO)[C@H](N)[C@@H](O)[C@@H]1O` belongs 0 °C; to `CN1CCN(c2ccc3[nH]c(-c4ccc5[nH]c(-c6ccc(OCCOCCOCCN(CCOCCOCCN)C(=O)CCCc7ccc8ccc9cccc%10ccc7c8c9%10)cc6)nc5c4)nc3c2)CC1`, 16 °C.

As to `NC[C@H]1O[C@@H](O[C@H]2[C@@H](O)[C@H](O[C@H]3[C@H](O)[C@@H](N)C[C@@H](N)[C@@H]3O[C@H]3O[C@H](CN)[C@@H](O)[C@H](O)[C@H]3N)O[C@@H]2CCSCCNC(=S)NCCOCCOCCNC(=O)CCCc2ccc3ccc4cccc5ccc2c3c45)[C@@H](N)[C@H](O)[C@H]1O`, the ΔTm in the assay with Nucleic Acid [1] is 5 °C.

In the case of `CN1CCN(c2ccc3[nH]c(-c4ccc5[nH]c(-c6ccc(OCCOCCOCCN(CCOCCOCCNC(=S)NCCSCC[C@H]7O[C@@H](O[C@H]8[C@H](O)[C@@H](N)C[C@@H](N)[C@@H]8O[C@H]8O[C@H](CN)[C@@H](O)[C@H](O)[C@H]8N)[C@H](O)[C@@H]7O[C@@H]7O[C@H](CN)[C@H](O)[C@@H](O)[C@@H]7N)C(=O)CCCc7ccc8ccc9cccc%10ccc7c8c9%10)cc6)nc5c4)nc3c2)CC1`, in the assay with Nucleic Acid [1], the shift in melting temperature (ΔTm) was found to be 35 °C. Moreover, the outcome with Nucleic Acid [2] and in the assay with Nucleic Acid [3] was Active.

On to `CN1CCN(c2ccc3[nH]c(-c4ccc5[nH]c(-c6ccc(OCCOCCOCCOCCOCCOCCNC(=S)NCCSCC[C@H]7O[C@@H](O[C@H]8[C@H](O)[C@@H](N)C[C@@H](N)[C@@H]8O[C@H]8O[C@H](CN)[C@@H](O)[C@H](O)[C@H]8N)[C@H](O)[C@@H]7O[C@@H]7O[C@H](CN)[C@H](O)[C@@H](O)[C@@H]7N)cc6)nc5c4)nc3c2)CC1`, for which the ΔTm in the assay with Nucleic Acid [1] worked out at 24 °C. Further, the outcome in the assay with Nucleic Acid [2] and in the assay with Nucleic Acid [3] was Active. Consider `CN1CCN(c2ccc3[nH]c(-c4ccc5[nH]c(-c6ccc(O)cc6)nc5c4)nc3c2)CC1`, for which, in the assay on Nucleic Acid [1], the ΔTm was 22 °C.

The values are drawn from ChEMBL document CHEMBL1154209, “Triple recognition of B-DNA” (Bioorg Med Chem Lett, 2009).
